Where two headings read alike, the source gives them in different places.
Tests used:
[1] = system: T. cruzi strain Y trypomastigotes; experiment: Host cell infection inhibition assay (trypomastigote entry into L6 cells); assay type: cell-based, Trypanosoma cruzi; details: 1 h preincubation, 3 h infection, 72 h culture
Method: The assay was performed as previously described by Grellier et al.,[15] with slight modifications. Briefly, L6 cells were seeded in flasks containing RPMI medium supplemented with 5% fetal bovine serum and 1% penicillin/streptomycin (Gibco 15140122) and incubated at 37 °C in a 5% CO2 atmosphere. Trypomastigotes of T. cruzi strain Y were preincubated for 1 h at 37 °C in a culture medium containing different concentrations of inhibitors (0–200 μM, five points). Subsequently, they were added to L6 cell cultures that had been previously grown for 24h in 96-well plates (1000 cells/well) at a trypomastigote-to-host cell ratio of 30:1. After 3 h incubation at 37 °C, the wells were washed three times with inhibitor-free culture medium, and the cells were maintained for 72 h without inhibitors before fixation and staining with panoptic stain. The percentage of infected cells was determined by counting at least 200 host cells under 400-fold magnification. The inhibition of host cell invasion was calculated by comparing the percentage of infected cells in treated wells to that in untreated control wells. The concentration required to inhibit 50% of invasion (EC50) was determined using a nonlinear regression model applied to dose–response curves in GraphPad Prism v.8.

recombinant POPTc80 = recombinant POPTc80 (Trypanosoma cruzi, UniProt Q4E132); experiment: POPTc80 enzyme inhibition and kinetic assay (Suc-GPLGP-AMC fluorogenic substrate); assay type: biochemical
Method: The enzyme activity was assessed using the fluorogenic substrate Suc-GPLGP-AMC previously described by Santana et al.[14] A total of 20 ng of pure recombinant POPTc80 was incubated with 20 μM Suc-GPLGP-AMC in a 25 mM HEPES buffer containing 5 mM DTT at pH 7.5. The release of AMC was monitored over a period of 20 min by measuring its emission at 460 nm, following excitation at 355 nm, using a 96-well microplate fluorescence reader (M5, Molecular Devices). The IC50 values were obtained by a series of at least 9 points from 200 to 0.01 μM of the compound, plus the control. The data were subjected to a four-parameter logistic (4 PL) nonlinear regression model using GraphPad Prism 8 software to calculate the IC50. […] Active enzyme concentration was determined by titration with a chloromethyl ketone irreversible inhibitor of POPTc80.[13] All kinetic parameters were determined by nonlinear regression employing the GraphPad Prism enzyme kinetics module and Hanes-Woolf plots.[64]

[2] = Cytotoxicity assay (resazurin); assay type: cell-based; details: rat, L6 cells, pH 7.4; 72 h incubation
Method: L6 cells were cultured in 96-well plates at a density of 1 × 10^4 cells/well in 100 μL of RPMI 1640 medium supplemented with 10% heat-inactivated fetal bovine serum (FBS) and 25 mM HEPES pH 7.4, maintained at 37 °C, under a 5% CO2 atmosphere. After 24h, the compounds were diluted, starting at a concentration of 200 μM, in 100 μL of complete culture medium per well. Subsequently, 100 μL of the diluted compounds were added to the seeded cells. After 72 h of incubation, Resazurin solution (Sigma) was added to a final concentration of 20 μM and incubated for another 4h at 37 °C. Fluorescence was then measured at 570 nm (excitation) and 595 nm (emission) using a SpectraMax M5 microplate reader (Molecular Devices, Sunnyvale, CA, USA). The cytotoxic concentrations causing 50% inhibition of cell growth (CC50) were determined from data obtained in two independent experiments and calculated similarly to the EC50, as described above.

POPTc80 = details: cited from earlier work
T. cruzi = system: T. cruzi; design: method as in PMID 11598112; details: phenotypic data; cited from earlier work
[3] = Trypanosoma cruzi, L6, inhibition of host cell invasion
[4] = 20 μM Suc-GPLGP-AMC, pH 7.5, means ± SD of three replications, read-out: POPTc80 IC50
[5] = four compound and five substrate concentrations, means ± SD of three replications, read-out: POPTc80 Ki
[6] = inhibition of host cell invasion

recombinant POPTc80, sequence (Q4E132 entry or part of it): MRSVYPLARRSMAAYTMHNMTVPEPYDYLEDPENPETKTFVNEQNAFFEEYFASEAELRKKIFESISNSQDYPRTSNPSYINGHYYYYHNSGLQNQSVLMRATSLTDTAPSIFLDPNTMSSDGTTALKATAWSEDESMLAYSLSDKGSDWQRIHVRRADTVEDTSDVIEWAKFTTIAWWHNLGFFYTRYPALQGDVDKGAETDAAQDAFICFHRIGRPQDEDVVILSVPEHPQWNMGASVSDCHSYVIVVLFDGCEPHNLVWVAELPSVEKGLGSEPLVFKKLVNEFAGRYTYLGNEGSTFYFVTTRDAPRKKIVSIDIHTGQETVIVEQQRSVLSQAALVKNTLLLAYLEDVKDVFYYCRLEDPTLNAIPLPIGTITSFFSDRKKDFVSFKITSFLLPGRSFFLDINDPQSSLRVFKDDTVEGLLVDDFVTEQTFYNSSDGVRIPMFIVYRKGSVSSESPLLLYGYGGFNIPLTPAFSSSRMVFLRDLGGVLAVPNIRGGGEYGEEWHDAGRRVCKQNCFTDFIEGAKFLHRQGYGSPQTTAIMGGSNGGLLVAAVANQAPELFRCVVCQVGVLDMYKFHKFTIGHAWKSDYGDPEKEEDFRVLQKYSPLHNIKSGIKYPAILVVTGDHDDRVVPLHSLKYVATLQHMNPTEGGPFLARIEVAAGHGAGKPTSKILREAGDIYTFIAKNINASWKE

Structure (SMILES)	EC50 [1, 3]	POPTc80 LE (ligand efficiency) (recombinant POPTc80)	IC50 (recombinant POPTc80; [4])	CC50 at 72 h [2]	also measured
Cn1c(CNC(=O)C2CCCCC2C(=O)N2CCCC2)nc2ccccc21 (stereo not drawn) [LC-53]	24.9 ± 3.45 µM	0.35 kcal/mol per heavy atoms	0.27 ± 0.07 µM	> 200 µM	Ki (recombinant POPTc80; [5]): 0.158 ± 0.044 µM
Cc1cccc(NC(=O)CC(=O)N2CCCC2C(=O)N2CCOCC2)c1 (stereo not drawn) [LC-54]			> 20 µM		
O=C(C1CCCN1C(=O)NCc1cc2ccccc2s1)N1CCOCC1 (stereo not drawn) [LC-50]	80.2 ± 5.27 µM	0.31 kcal/mol per heavy atoms		> 200 µM	IC50 (recombinant POPTc80): 0.59 ± 0.19 µM; Ki (recombinant POPTc80): 0.44 ± 0.09 µM
Cc1nn(C)c(C)c1CCC(=O)N1CCCC1C(=O)N1CCCCC1 (stereo not drawn) [LC-56]			> 20 µM		
O=C(C1CCCN1C(=O)Cn1sc2ccccc2c1=O)N1CCCCC1 (stereo not drawn) [LC-57]			> 20 µM		
O=C(NCCc1cnccn1)C1CCCCC1C(=O)N1CCCC1 (stereo not drawn) [LC-48]			0.95 ± 0.1 µM		
O=C(NCCCc1nc2cc(Cl)ccc2[nH]1)C1CCCCN1C(=O)C1CC1 (stereo not drawn) [LC-40]			> 20 µM		
Cc1csc(SCC(=O)N2CCCC2C(=O)N2CCOCC2)n1 (stereo not drawn) [LC-49]			> 20 µM		
O=C(NCCc1nc2cc(F)ccc2[nH]1)C1CCCCN1C(=O)C1CC1 (stereo not drawn) [LC-42]			> 20 µM		
O=C(NCCc1cscn1)C1CCCCC1C(=O)N1CCCC1 (stereo not drawn) [LC-45]	46.7 ± 3.55 µM	0.44 kcal/mol per heavy atoms	0.23 ± 0.08 µM	> 200 µM	Ki (recombinant POPTc80; [5]): 0.054 ± 0.006 µM
O=C(C1CCCN1C(=O)CCCc1ccc(Cl)cc1)N1CCOCC1 (stereo not drawn) [LC-55]	16.2 µM	0.35 kcal/mol per heavy atoms	0.44 ± 0.08 µM	> 200 µM	EC50 [1, 6]: 18.6 ± 3.79 µM; Ki (recombinant POPTc80; [5]): 0.83 ± 0.11 µM
O=C(NCCc1nccs1)C1CCCCN1C(=O)C1CC1 (stereo not drawn) [LC-41]			> 20 µM		
COC(OC)C1CCCN1C(=O)C1CCCN1C(=O)OCc1ccccc1 (stereo not drawn) [ZPPD, Z-P-prolinal dimethylacetal]		0.31 kcal/mol per heavy atoms			IC50 (POPTc80): 6.7 µM; Ki (POPTc80): 1.12 ± 0.12 µM; EC50 (T. cruzi): 250 µM
Cc1nc2ccc(CNC(=O)C3CCCCC3C(=O)N3CCCC3)cc2[nH]1 (stereo not drawn) [LC-47]		0.30 kcal/mol per heavy atoms			IC50 (recombinant POPTc80; read-out: POPTc80 IC50, 20 μM Suc-GPLGP-AMC, pH 7.5, means ± SD of three replications): 1.21 ± 0.32 µM; Ki (recombinant POPTc80; read-out: POPTc80 Ki, four compound and five substrate concentrations, means ± SD of three replications): 1.99 ± 0.26 µM
O=C(NCCOc1cccc2cccnc12)C1CCCCC1C(=O)N1CCCC1 (stereo not drawn) [LC-44]	92.5 µM	0.33 kcal/mol per heavy atoms	0.64 ± 0.1 µM	> 200 µM	EC50 [1, 6]: 92.4 ± 3.74 µM; Ki (recombinant POPTc80; [5]): 0.175 ± 0.031 µM
O=C(NCCCc1ccccn1)C1CCCCC1C(=O)N1CCCC1 (stereo not drawn) [LC-46]	46.6 ± 20.8 µM	0.35 kcal/mol per heavy atoms	0.4 ± 0.24 µM	> 200 µM	Ki (recombinant POPTc80; [5]): 0.513 ± 0.218 µM
O=C(NCCc1cnn(-c2ccccc2)c1)C1CCCCN1C(=O)C1CC1 (stereo not drawn) [LC-39]			> 20 µM		

Source: PMC11898053, “Structure-Based Identification of Non-covalent Prolyl Oligopeptidase 80 Inhibitors Targeting Trypanosoma cruzi Cell Entry” (Journal of Chemical Information and Modeling, 2025)
